Measurements as given in ChEMBL document CHEMBL2010711, “Synthesis and comparative evaluation of 4-oxa- and 4-aza-podophyllotoxins as antiproliferative microtubule destabilizing agents” (Bioorg Med Chem Lett, 2012).
Activity calls are given as the source filed them.

Experiments:
[1] = test system: CAKI-1; experiment: Cytotoxicity against human CAKI-1 cells after 48 hrs by trypan blue dye exclusion assay; format: functional; settings: CAKI-1, 48 h
[2] = test system: MDA-MB-468; experiment: Cytotoxicity against human MDA-MB-468 cells after 48 hrs by trypan blue dye exclusion assay; format: functional; settings: MDA-MB-468, 48 h
[3] = test system: LOX IMVI; experiment: Cytotoxicity against human LOXIMVI cells after 48 hrs by trypan blue dye exclusion assay; format: functional
[4] = test system: PC-3; experiment: Cytotoxicity against human PC3 cells after 48 hrs by trypan blue dye exclusion assay; format: functional; settings: PC-3, 48 h
[5] = test system: OVCAR-3; experiment: Cytotoxicity against human OVCAR3 cells after 48 hrs by trypan blue dye exclusion assay; format: functional; settings: OVCAR-3, 48 h
[6] = test system: Malme-3M; experiment: Cytotoxicity against human MALME-3M cells after 48 hrs by trypan blue dye exclusion assay; format: functional
[7] = test system: NCI-H23; experiment: Cytotoxicity against human NCI-H23 cells after 48 hrs by trypan blue dye exclusion assay; format: functional; settings: NCI-H23, 48 h
[8] = Cytotoxicity against human Hs 578T cells after 48 hrs by trypan blue dye exclusion assay; format: functional
[9] = test system: UACC-257; experiment: Cytotoxicity against human UACC257 cells after 48 hrs by trypan blue dye exclusion assay; format: functional; settings: UACC-257, 48 h
[10] = test system: Paracentrotus lividus; experiment: Microtubule destabilizing activity in Paracentrotus lividus embryo assessed as embryo spinning at 2 fold less effective threshold concentration after 15 mins to 20 hrs; format: functional, organism-based
[11] = test system: A549; experiment: Cytotoxicity against human A549 cells after 48 hrs by trypan blue dye exclusion assay; format: functional; settings: A549, 48 h
[12] = test system: A498; experiment: Cytotoxicity against human A498 cells after 48 hrs by trypan blue dye exclusion assay; format: functional; settings: A498, 48 h
[13] = test system: OVCAR-8; experiment: Cytotoxicity against human OVCAR8 cells after 48 hrs by trypan blue dye exclusion assay; format: functional; settings: OVCAR-8, 48 h
[14] = test system: MDA-MB-435; experiment: Cytotoxicity against human MDA-MB-435 cells after 48 hrs by trypan blue dye exclusion assay; format: functional; settings: MDA-MB-435, 48 h
[15] = test system: SW-620; experiment: Cytotoxicity against human SW620 cells after 48 hrs by trypan blue dye exclusion assay; format: functional; settings: SW-620, 48 h
[16] = test system: M14; experiment: Cytotoxicity against human M14 cells after 48 hrs by trypan blue dye exclusion assay; format: functional; settings: M14, 48 h
[17] = test system: MCF7; experiment: Cytotoxicity against human MCF7 cells after 48 hrs by trypan blue dye exclusion assay; format: functional; settings: MCF7, 48 h
[18] = test system: UACC-62; experiment: Cytotoxicity against human UACC62 cells after 48 hrs by trypan blue dye exclusion assay; format: functional; settings: UACC-62, 48 h
[19] = test system: SF-295; experiment: Cytotoxicity against human SF295 cells after 48 hrs by trypan blue dye exclusion assay; format: functional; settings: SF-295, 48 h
[20] = test system: CCRF-CEM; experiment: Cytotoxicity against human CCRF-CEM cells after 48 hrs by trypan blue dye exclusion assay; format: functional
[21] = test system: MDA-MB-231; experiment: Cytotoxicity against human MDA-MB-231 cells after 48 hrs by trypan blue dye exclusion assay; format: functional; settings: MDA-MB-231, 48 h
[22] = test system: RPMI-8226; experiment: Cytotoxicity against human RPMI8226 cells after 48 hrs by trypan blue dye exclusion assay; format: functional; settings: RPMI-8226, 48 h
[23] = test system: Paracentrotus lividus; experiment: Antimitotic activity against Paracentrotus lividus embryo assessed as cleavage alteration at 2 fold less effective threshold concentration after 2.5 to 6 hrs; format: functional, organism-based
[24] = test system: NCI-H226; experiment: Cytotoxicity against human NCI-H226 cells after 48 hrs by trypan blue dye exclusion assay; format: functional; settings: NCI-H226, 48 h
[25] = test system: SNB-75; experiment: Cytotoxicity against human SNB75 cells after 48 hrs by trypan blue dye exclusion assay; format: functional; settings: SNB-75, 48 h
[26] = test system: HL-60(TB); experiment: Cytotoxicity against human HL-60(TB) cells after 48 hrs by trypan blue dye exclusion assay; format: functional; settings: HL-60, 48 h
[27] = test system: TK-10; experiment: Cytotoxicity against human TK10 cells after 48 hrs by trypan blue dye exclusion assay; format: functional; settings: TK-10, 48 h
[28] = test system: BT-549; experiment: Cytotoxicity against human BT549 cells after 48 hrs by trypan blue dye exclusion assay; format: functional; settings: BT-549, 48 h
[29] = test system: Paracentrotus lividus; experiment: Antimitotic activity against Paracentrotus lividus embryo assessed as cleavage arrest at 2 fold less effective threshold concentration after 2.5 to 6 hrs; format: functional, organism-based
[30] = test system: OVCAR-4; experiment: Cytotoxicity against human OVCAR4 cells after 48 hrs by trypan blue dye exclusion assay; format: functional; settings: OVCAR-4, 48 h
[31] = test system: NCI-H522; experiment: Cytotoxicity against human NCI-H522 cells after 48 hrs by trypan blue dye exclusion assay; format: functional; settings: NCI-H522, 48 h
[32] = test system: COLO 205; experiment: Cytotoxicity against human COLO205 cells after 48 hrs by trypan blue dye exclusion assay; format: functional; settings: COLO 205, 48 h
[33] = test system: EKVX; experiment: Cytotoxicity against human EKVX cells after 48 hrs by trypan blue dye exclusion assay; format: functional
[34] = test system: SK-MEL-2; experiment: Cytotoxicity against human SK-MEL-2 cells after 48 hrs by trypan blue dye exclusion assay; format: functional; settings: SK-MEL-2, 48 h
[35] = test system: IGROV-1; experiment: Cytotoxicity against human IGROV1 cells after 48 hrs by trypan blue dye exclusion assay; format: functional; settings: IGROV-1, 48 h
[36] = test system: HCT-116; experiment: Cytotoxicity against human HCT116 cells after 48 hrs by trypan blue dye exclusion assay; format: functional; settings: HCT-116, 48 h
[37] = test system: SK-OV-3; experiment: Cytotoxicity against human SKOV3 cells after 48 hrs by trypan blue dye exclusion assay; format: functional; settings: SK-OV-3, 48 h
[38] = test system: DU-145; experiment: Cytotoxicity against human DU145 cells after 48 hrs by trypan blue dye exclusion assay; format: functional; settings: DU-145, 48 h
[39] = test system: SF-268; experiment: Cytotoxicity against human SF268 cells after 48 hrs by trypan blue dye exclusion assay; format: functional; settings: SF-268, 48 h
[40] = test system: SN12C; experiment: Cytotoxicity against human SN12C cells after 48 hrs by trypan blue dye exclusion assay; format: functional
[41] = test system: HOP-92; experiment: Cytotoxicity against human HOP92 cells after 48 hrs by trypan blue dye exclusion assay; format: functional; settings: HOP-92, 48 h
[42] = test system: UO-31; experiment: Cytotoxicity against human UO31 cells after 48 hrs by trypan blue dye exclusion assay; format: functional; settings: UO-31, 48 h
[43] = test system: NCI-H460; experiment: Cytotoxicity against human NCI-H460 cells after 48 hrs by trypan blue dye exclusion assay; format: functional; settings: NCI-H460, 48 h
[44] = test system: U-251; experiment: Cytotoxicity against human U251 cells after 48 hrs by trypan blue dye exclusion assay; format: functional; settings: U-251, 48 h
[45] = test system: SF-539; experiment: Cytotoxicity against human SF539 cells after 48 hrs by trypan blue dye exclusion assay; format: functional; settings: SF-539, 48 h
[46] = test system: HCT-15; experiment: Cytotoxicity against human HCT15 cells after 48 hrs by trypan blue dye exclusion assay; format: functional; settings: HCT-15, 48 h
[47] = test system: ACHN; experiment: Cytotoxicity against human ACHN cells after 48 hrs by trypan blue dye exclusion assay; format: functional
[48] = test system: SK-MEL-28; experiment: Cytotoxicity against human SK-MEL-28 cells after 48 hrs by trypan blue dye exclusion assay; format: functional; settings: SK-MEL-28, 48 h
[49] = test system: SNB-19; experiment: Cytotoxicity against human SNB19 cells after 48 hrs by trypan blue dye exclusion assay; format: functional; settings: SNB-19, 48 h
[50] = test system: OVCAR-5; experiment: Cytotoxicity against human OVCAR5 cells after 48 hrs by trypan blue dye exclusion assay; format: functional; settings: OVCAR-5, 48 h
[51] = test system: NCI/ADR-RES; experiment: Cytotoxicity against human NCI/ADR-RES cells after 48 hrs by trypan blue dye exclusion assay; format: functional
[52] = test system: RXF 393; experiment: Cytotoxicity against human RXF393 cells after 48 hrs by trypan blue dye exclusion assay; format: functional; settings: RXF 393, 48 h
[53] = test system: SK-MEL-5; experiment: Cytotoxicity against human SK-MEL-5 cells after 48 hrs by trypan blue dye exclusion assay; format: functional; settings: SK-MEL-5, 48 h
[54] = test system: 786-0; experiment: Cytotoxicity against human 786-0 cells after 48 hrs by trypan blue dye exclusion assay; format: functional; settings: 786-0, 48 h
[55] = test system: KM12; experiment: Cytotoxicity against human KM12 cells after 48 hrs by trypan blue dye exclusion assay; format: functional; settings: KM12, 48 h
[56] = test system: HCC 2998; experiment: Cytotoxicity against human HCC2998 cells after 48 hrs by trypan blue dye exclusion assay; format: functional; settings: HCC 2998, 48 h
[57] = test system: T47D; experiment: Cytotoxicity against human T47D cells after 48 hrs by trypan blue dye exclusion assay; format: functional
[58] = test system: HT-29; experiment: Cytotoxicity against human HT-29 cells after 48 hrs by trypan blue dye exclusion assay; format: functional; settings: HT-29, 48 h
[59] = test system: MOLT-4; experiment: Cytotoxicity against human MOLT4 cells after 48 hrs by trypan blue dye exclusion assay; format: functional; settings: MOLT-4, 48 h
[60] = test system: NCI-H322M; experiment: Cytotoxicity against human NCI-H322M cells after 48 hrs by trypan blue dye exclusion assay; format: functional
[61] = test system: SR; experiment: Cytotoxicity against human SR cells after 48 hrs by trypan blue dye exclusion assay; format: functional

In the case of COc1ccc2c(c1)C(c1cc(OC)c3c(c1)OCO3)C1=C(COC1=O)N2 (stereo unspecified), the GI50 [1] is reported as 0.709 µM, the GI50 [2] is reported as 0.23 µM and the GI50 [3] is reported as 0.702 µM. It also gave a GI50 [4] of 0.358 µM, a GI50 [5] of 0.234 µM and a GI50 [6] greater than 100 µM. The GI50 [7] was 0.317 µM, the GI50 [8] was 0.199 µM and the GI50 [9] was greater than 100 µM. For the same molecule, the Activity [10] was “inactive”, the GI50 [11] was 0.491 µM and the GI50 [12] was 0.138 µM. For the same molecule, the GI50 [13] was 0.595 µM, the GI50 [14] was 0.049 µM and the GI50 [15] was 0.377 µM. It also gave a GI50 [16] of 0.247 µM, a GI50 [17] of 0.254 µM and a GI50 [18] of 0.0881 µM. The GI50 [19] was 0.0825 µM, the GI50 [20] was 0.424 µM and the GI50 [21] was 0.698 µM. For the same molecule, the GI50 [22] was 0.494 µM, the Activity [23] was “inactive” and the GI50 [24] was 23.3 µM. For the same molecule, the GI50 [25] was 0.0487 µM, the GI50 [26] was 0.287 µM and the GI50 [27] was greater than 100 µM. For the same molecule, the GI50 [28] was 1.19 µM, the Activity [29] was “inactive” and the GI50 [30] was 0.762 µM. It also gave a GI50 [31] of 0.348 µM, a GI50 [32] of 0.268 µM and a GI50 [33] of 0.982 µM. It also gave a GI50 [34] of 0.429 µM, a GI50 [35] of 0.679 µM and a GI50 [36] of 0.457 µM. For the same molecule, the GI50 [37] was 0.318 µM, the GI50 [38] was 0.399 µM and the GI50 [39] was 0.805 µM. For the same molecule, the GI50 [40] was 0.622 µM, the GI50 [41] was 0.425 µM and the GI50 [42] was 33.1 µM. It also gave a GI50 [43] of 19.2 µM, a GI50 [44] of 0.805 µM and a GI50 [45] of 0.359 µM. For the same molecule, the GI50 [46] was 0.485 µM, the GI50 [47] was 1.57 µM and the GI50 [48] was 0.206 µM. It also gave a GI50 [49] of 0.518 µM, a GI50 [50] of 0.629 µM and a GI50 [51] of 0.289 µM. The GI50 [52] was 0.13 µM, the GI50 [53] was 0.269 µM and the GI50 [54] was 0.594 µM. For the same molecule, the GI50 [55] was 0.254 µM, the GI50 [56] was 0.568 µM and the GI50 [57] was 50.5 µM. The GI50 [58] was 0.326 µM, the GI50 [59] was 0.569 µM and the GI50 [60] was 0.283 µM. The GI50 [61] was 0.324 µM.
